Results: patent US4791118A, “Quinolonecarboxylic acid derivatives and their preparation” (Kyorin Pharmaceutical Co., Ltd., priority 1985, dated 1988)
≈ marks a conversion by molar mass, not a printed value. Where two headings read alike, the source gives them in different places.

Assays:
[1] = test system: S. pyogenes IID 692; experiment: MIC, aerobic bacteria; type: cell-based; conditions: Streptococcus pyogenes, IID692, Gram +, 10^6 cells/ml
[2] = test system: E. coli ML 4707; experiment: MIC, aerobic bacteria; type: cell-based; conditions: Escherichia coli, ML4707, Gram -, 10^6 cells/ml
[3] = test system: S. marcescens GN 7577; experiment: MIC, aerobic bacteria; type: cell-based; conditions: Serratia marcescens, GN7577, Gram -, 10^6 cells/ml
[4] = test system: P. aeruginosa IFO 12689; experiment: MIC, aerobic bacteria; type: cell-based; conditions: Pseudomonas aeruginosa, IFO12689, Gram -, 10^6 cells/ml
[5] = test system: P. maltophilia GIFU 2491; experiment: MIC, aerobic bacteria; type: cell-based; conditions: Stenotrophomonas maltophilia, GIFU2491, Gram -, 10^6 cells/ml
[6] = test system: B. thetaiotaomicron (0661); experiment: MIC, anaerobic bacteria; type: cell-based; conditions: Bacteroides thetaiotaomicron, Gram -, 10^6 cells/ml
[7] = test system: F. necrophorum S-45; experiment: MIC, anaerobic bacteria; type: cell-based; conditions: Fusobacterium necrophorum, S45, Gram -, 10^6 cells/ml
[8] = test system: Propionibacterium acens 11828; experiment: MIC, anaerobic bacteria; type: cell-based
[9] = test system: Peptostreptococcus anaerobius KYA 27337; experiment: MIC, anaerobic bacteria; type: cell-based; conditions: KYA27337, Gram +, 10^6 cells/ml
[10] = test system: S. pyogenes 3130; experiment: MIC, clinical isolates; type: cell-based; conditions: Streptococcus pyogenes; clinical isolate S. pyogenes 3130; 10^6 cells/ml
[11] = test system: S. pyogenes 3102; experiment: MIC, clinical isolates; type: cell-based; conditions: Streptococcus pyogenes; clinical isolate S. pyogenes 3102; 10^6 cells/ml
[12] = test system: S. pyogenes 3107; experiment: MIC, clinical isolates; type: cell-based; conditions: Streptococcus pyogenes; clinical isolate S. pyogenes 3107; 10^6 cells/ml
[13] = test system: S. pyogenes 4340; experiment: MIC, clinical isolates; type: cell-based; conditions: Streptococcus pyogenes; clinical isolate S. pyogenes 4340; 10^6 cells/ml
[14] = test system: S. pyogenes 4372; experiment: MIC, clinical isolates; type: cell-based; conditions: Streptococcus pyogenes; clinical isolate S. pyogenes 4372; 10^6 cells/ml
[15] = test system: S. pyogenes 3131; experiment: MIC, clinical isolates; type: cell-based; conditions: Streptococcus pyogenes; clinical isolate S. pyogenes 3131; 10^6 cells/ml
[16] = test system: S. pneumoniae 3727; experiment: MIC, clinical isolates; type: cell-based; conditions: Streptococcus pneumoniae; clinical isolate S. pneumoniae 3727; 10^6 cells/ml
[17] = test system: S. pneumoniae 17; experiment: MIC, clinical isolates; type: cell-based; conditions: Streptococcus pneumoniae; clinical isolate S. pneumoniae 17; 10^6 cells/ml
[18] = test system: S. pneumoniae 2054; experiment: MIC, clinical isolates; type: cell-based; conditions: Streptococcus pneumoniae; clinical isolate S. pneumoniae 2054; 10^6 cells/ml
[19] = test system: S. pneumoniae 4288; experiment: MIC, clinical isolates; type: cell-based; conditions: Streptococcus pneumoniae; clinical isolate S. pneumoniae 4288; 10^6 cells/ml
[20] = test system: S. pneumoniae 2950; experiment: MIC, clinical isolates; type: cell-based; conditions: Streptococcus pneumoniae; clinical isolate S. pneumoniae 2950; 10^6 cells/ml
[21] = test system: S. agalactiae 4342; experiment: MIC, clinical isolates; type: cell-based; conditions: Streptococcus agalactiae; clinical isolate S. agalactiae 4342; 10^6 cells/ml
[22] = test system: S. agalactiae 4368; experiment: MIC, clinical isolates; type: cell-based; conditions: Streptococcus agalactiae; clinical isolate S. agalactiae 4368; 10^6 cells/ml
[23] = test system: S. agalactiae 4468; experiment: MIC, clinical isolates; type: cell-based; conditions: Streptococcus agalactiae; clinical isolate S. agalactiae 4468; 10^6 cells/ml
[24] = test system: E. faecalis 49; experiment: MIC, clinical isolates; type: cell-based; conditions: Enterococcus faecalis; clinical isolate E. faecalis 49; 10^6 cells/ml
[25] = test system: E. faecalis 214; experiment: MIC, clinical isolates; type: cell-based; conditions: Enterococcus faecalis; clinical isolate E. faecalis 214; 10^6 cells/ml
[26] = test system: E. faecalis 401; experiment: MIC, clinical isolates; type: cell-based; conditions: Enterococcus faecalis; clinical isolate E. faecalis 401; 10^6 cells/ml
[27] = test system: E. faecalis 604; experiment: MIC, clinical isolates; type: cell-based; conditions: Enterococcus faecalis; clinical isolate E. faecalis 604; 10^6 cells/ml
[28] = test system: Alcaligenes faecalis 0114002; experiment: MIC, aerobic bacteria
[29] = test system: Eubacterium limosum KYA 8486; experiment: MIC, anaerobic bacteria; conditions: KYA8486
[30] = test system: C. ramosum; experiment: MIC, anaerobic bacteria; conditions: Thomasclavelia ramosa
[31] = test system: Bacillus subtilis PCI 219; experiment: microbe, parasite or virus in culture; conditions: PCI219
[32] = test system: S. aureus Smith; experiment: microbe, parasite or virus in culture; conditions: Staphylococcus aureus
[33] = test system: K. pneumoniae 1-220S; experiment: microbe, parasite or virus in culture; conditions: Klebsiella pneumoniae, 1220S
[34] = test system: Shigella sonnei IID 969; experiment: microbe, parasite or virus in culture; conditions: IID969
[35] = test system: Salmonella enteritidis IID 604; experiment: microbe, parasite or virus in culture; conditions: Salmonella enterica
[36] = test system: P. cepacia GIFU 518; experiment: microbe, parasite or virus in culture; conditions: Burkholderia cepacia, GIFU518
[37] = test system: S. agalactiae 4394; experiment: microbe, parasite or virus in culture; conditions: Streptococcus agalactiae

SMILES	MIC [1] [µg/mL]	MIC [2] [µg/mL]	MIC [3] [µg/mL]	MIC [4] [µg/mL]	MIC [5] [µg/mL]	MIC [6] [µg/mL]	MIC [7] [µg/mL]	MIC [9] [µg/mL]	MIC [10] [µg/mL]	MIC [11] [µg/mL]	MIC [12] [µg/mL]	MIC [13] [µg/mL]	MIC [14] [µg/mL]	MIC [15] [µg/mL]	MIC [16] [µg/mL]	MIC [17] [µg/mL]	MIC [18] [µg/mL]	MIC [19] [µg/mL]	MIC [20] [µg/mL]	MIC [21] [µg/mL]	further results
O=C(O)c1cn(C2CC2)c2c(Cl)c(N3CCC(CNCCF)C3)c(F)cc2c1=O (centres unmarked) [Exp. 1, 8-Chloro-1-cyclopropyl-6-fluoro-7-[3-(2-fluoroethyl)aminomethyl-1-pyrrolidinyl]-1,4-dihydro-4-oxo-3-quinolinecarboxylic acid]	0.05 (≈ 0.117 µM)	0.0125 (≈ 0.0294 µM)	1.56 (≈ 3.66 µM)	1.56 (≈ 3.66 µM)	0.2 (≈ 0.47 µM)	0.2 (≈ 0.47 µM)	0.1 (≈ 0.235 µM)	≤ 0.05	0.025 (≈ 0.0587 µM)	0.025 (≈ 0.0587 µM)	0.025 (≈ 0.0587 µM)	0.025 (≈ 0.0587 µM)	0.025 (≈ 0.0587 µM)	0.025 (≈ 0.0587 µM)	0.025 (≈ 0.0587 µM)	0.025 (≈ 0.0587 µM)	0.025 (≈ 0.0587 µM)	0.025 (≈ 0.0587 µM)	0.025 (≈ 0.0587 µM)	0.05 (≈ 0.117 µM)	MIC ([8]; Propionibacterium, 11828): 0.78 µg/mL (≈ 1.83 µM); MIC [22]: 0.025 µg/mL (≈ 0.0587 µM); MIC [23]: 0.025 µg/mL (≈ 0.0587 µM); MIC [24]: 0.05 µg/mL (≈ 0.117 µM); MIC [25]: 0.05 µg/mL (≈ 0.117 µM); MIC [26]: 0.05 µg/mL (≈ 0.117 µM); MIC [27]: 0.05 µg/mL (≈ 0.117 µM); MIC [28]: 0.39 µg/mL (≈ 0.916 µM); MIC [29]: 0.39 µg/mL (≈ 0.916 µM); MIC [30]: 0.1 µg/mL (≈ 0.235 µM); MIC [31]: ≤ 0.0063 µg/mL; MIC [32]: ≤ 0.0063 µg/mL; MIC [33]: 0.1 µg/mL (≈ 0.235 µM); MIC [34]: 0.0125 µg/mL (≈ 0.0294 µM); MIC [35]: 0.1 µg/mL (≈ 0.235 µM); MIC [36]: 0.78 µg/mL (≈ 1.83 µM); MIC [37]: 0.1 µg/mL (≈ 0.235 µM)
O=C(O)c1cn(C2CC2)c2c(F)c(N3CCC(CNCCF)C3)c(F)cc2c1=O (centres unmarked) [Exp. 2, 1-Cyclopropyl-7-[3-(2-fluoroethyl)aminomethyl-1-pyrrolidinyl]-6,8-difluoro-1,4-dihydro-4-oxo-3-quinolinecarboxylic acid]	0.1 (≈ 0.244 µM)	0.025 (≈ 0.0611 µM)	1.56 (≈ 3.81 µM)	1.56 (≈ 3.81 µM)	0.2 (≈ 0.489 µM)	0.78 (≈ 1.91 µM)	0.2 (≈ 0.489 µM)	≤ 0.05	0.05 (≈ 0.122 µM)	0.05 (≈ 0.122 µM)	0.05 (≈ 0.122 µM)	0.05 (≈ 0.122 µM)	0.05 (≈ 0.122 µM)	0.05 (≈ 0.122 µM)	0.05 (≈ 0.122 µM)	0.05 (≈ 0.122 µM)	0.05 (≈ 0.122 µM)	0.05 (≈ 0.122 µM)	0.05 (≈ 0.122 µM)	0.05 (≈ 0.122 µM)	MIC ([8]; Propionibacterium acens 11828, anaerobic, Gram +, 10^6 cells/ml, read-out: MIC): 1.56 µg/mL (≈ 3.81 µM); MIC [22]: 0.05 µg/mL (≈ 0.122 µM); MIC [23]: 0.05 µg/mL (≈ 0.122 µM); MIC [24]: 0.05 µg/mL (≈ 0.122 µM); MIC [25]: 0.05 µg/mL (≈ 0.122 µM); MIC [26]: 0.1 µg/mL (≈ 0.244 µM); MIC [27]: 0.1 µg/mL (≈ 0.244 µM); MIC [28]: 0.39 µg/mL (≈ 0.953 µM); MIC [29]: 0.78 µg/mL (≈ 1.91 µM); MIC [30]: 0.39 µg/mL (≈ 0.953 µM); MIC [31]: 0.0125 µg/mL (≈ 0.0305 µM); MIC [32]: 0.0125 µg/mL (≈ 0.0305 µM); MIC [33]: 0.1 µg/mL (≈ 0.244 µM); MIC [34]: 0.0125 µg/mL (≈ 0.0305 µM); MIC [35]: 0.1 µg/mL (≈ 0.244 µM); MIC [36]: 0.78 µg/mL (≈ 1.91 µM); MIC [37]: 0.1 µg/mL (≈ 0.244 µM)
